Measurements taken from patent publication US20120115232A1, “METHOD FOR INDUCING DEGRADATION OF PROTEIN IN MAMMALIAN CELL” (OSAKA UNIVERSITY, priority 2009, published 2012).

Tested on: GFP-aid-NLS marker protein
Test: Induction of degradation of labeled protein of interest in transiently transfected COS1 cells, Western blot with GFP antibody
Format: cell-based, monkey
Conditions: 500 μM auxin, 5 hours
Procedure: The EGFP segment of pIRES2-AcGFP1 (Clontech) was removed by treatment with restriction enzymes BstXI and NotI, into which EGFP-IAA17, which was amplified using pMK42 (an EGFP-IAA17-containing plasmid produced by the inventors) as a template and the following primer set, was inserted (the amplified sequence is shown in SEQ ID NO: 13). By this process, EGFP-IAA17 was cloned downstream of IRES. The resulting plasmid was treated with restriction enzymes XhoI and SmaI, and into this site, rice TIR1 tagged with 9Myc at its C terminus was inserted. By this process, the rice TIR1 was inserted between a CMV promoter and IRES, and the resulting plasmid was referred to as pNHK60. The pNHK60 was transferred into the proliferating COS1, CHO, and NIH3T3 cells using Lipofectamine 2000 (Invitrogen) for transient expression. The HEK293 cell shown in FIG. 4 is a HEK293 strain stably expressing pNHK60, which was obtained by transfer of the pNHK60 under the aforementioned conditions and subsequent selection by the addition of G418 to a medium.
In the experiment of transient expression, the cells were cultured in a medium to which 500 μM IAA or NAA was added, and after five hours, the cells were collected, from which extracts were prepared. […] The factors were detected by Western blotting.
The protein thus extracted was separated by SDS-PAGE and then transferred to a nitrocellulose membrane. Using an anti-Myc antibody (mouse monoclonal 9E10) and an anti-GFP antibody (mouse monoclonal 9E1), each kind of protein was detected by Western blotting. […] For migration control, total extracted proteins were detected by Ponceau staining. Since the […] TIR1 gene is tagged with 9Myc, the TIR1 protein can be detected by Western blotting with the aforementioned Myc antibody. Also, EGFP, which is a protein to be degraded in the complex protein, can be detected by Western blotting with the GFP antibody.
In a similar manner to Example 1, the induction of degradation of a labeled protein of interest was compared between the case in which an expression vector having the TIR1 family protein gene from rice linked between a virus promoter and IRES and the chimeric gene expressing a labeled protein of interest linked downstream thereof was transferred (corresponding to A in FIG. 5) and the case in which an expression vector having the chimeric gene expressing a labeled protein of interest linked between a virus promoter and IRES and the TIR1 family protein gene from rice linked downstream thereof was transferred (corresponding to B in FIG. 5). […] After extraction of a protein sample, the expressed GFP-aid-NLS marker protein was detected by Western blotting using the GFP antibody.

[1] = DNA construct A (rice TIR1 between virus promoter and IRES, chimeric gene downstream)
[2] = DNA construct B (chimeric gene between virus promoter and IRES, rice TIR1 downstream)

In the case of `O=C(O)Cc1c[nH]c2ccccc12` [IAA, indole-3-acetic acid], the “depletion of expressed GFP-aid-NLS marker protein” value (shortened to “depletion”) [1] is reported as “efficiently depleted” and the “depletion” value [2] is reported as “no outstanding depletion”.

For `O=C(O)Cc1cccc2ccccc12` [NAA, 1-naphthaleneacetic acid], the “depletion” value [1] was “efficiently depleted” and the “depletion” value [2] was “no outstanding depletion”.
